In brackets after ≈: the same amount, converted by molar mass.

Data set [1] is described as follows: Lipophilicity, logD of compound at pH 7.4. In kind it is physicochemical. The settings on record: buffer.
Data set [2] is described as follows: Volume of distribution at steady state in mouse. It is filed as ADME, organism-based. The note with it: in vivo, read-out: Vdss.
The nature of data set [3]: Apparent permeability of compound across apical to basolateral in human Caco-2 cells at 10 uM. It is filed as ADME, cell-based. A general note: Passage across Caco-2 layers is used to estimate intestinal permeability.
Data set [4] can be described thus: Oral bioavailability in mouse at 1 mg/kg or 0.5 mg/kg, iv. In kind it is ADME, organism-based. The note with it: in vivo.
Data set [5] in a line: Solubility of the compound in aqueous phosphate buffer at pH 7.4 incubated for 24 hrs. It is filed as physicochemical.
Data set [6] in a line: Oral bioavailability in mouse at 30 mg/kg. It is filed as ADME, organism-based. The note with it: in vivo.
Data set [7] can be described thus: AUC (0 to t) in mouse plasma at 30 mg/kg, po. In kind it is ADME, organism-based. Further details: dose 30 mg/kg, route po.
A short description of data set [8]: AUC (0 to t) in mouse plasma at 1 mg/kg, po. In kind it is ADME, organism-based. More on the design: dose 1 mg/kg, route po.

As usually defined, the logD is the decadic logarithm of the distribution of all forms, ionised or not, between an organic phase and buffer at a given pH. What is called Papp A→B is how fast a substance crosses the layer from the apical side. Turning to `CCN(Cc1nc2c(N)nc3cc(-c4cc[nH]n4)ccc3c2[nH]1)C(C)=O` [BMS-986299], the logD in data set [1] came out at 1.8. In data set [2], the Vd is 0.8 L/kg. Besides, the apparent permeability from apical to basolateral (Papp A→B) at 10 µM in data set [3] amounted to 0.6 ×10⁻⁶ cm/s.

Take `CCNc1nc(N)nc2cc(-c3cc[nH]n3)ccc12`: the logD in data set [1] came to 1.8.

In data set [1], `CCNc1nc(N)nc2nc(-c3cc[nH]n3)ccc12` gave a logD of 1.4.

For orientation: bioavailability means dose-corrected exposure relative to a reference, in per cent. A high value points to much systemic uptake. `Nc1cc(NCCn2cccn2)c2ccc(-n3cccn3)cc2n1` came in with a logD in data set [1] of 1.7. Besides, in data set [4], the bioavailability stood at 1.1%. For the same compound, in data set [2], the Vd was found to be 3.1 L/kg. For the same compound, the apical-to-basolateral permeability (Papp A→B) at 10 µM in data set [3] came to 2.3 ×10⁻⁶ cm/s.

A word on the solubility: it is the concentration that dissolves in the medium under given conditions. In turn, `Nc1nc(NC2CC2)c2ccc(-c3cc[nH]n3)nc2n1` yielded a solubility at 24 h in data set [5] above 1000 µM. The compound also showed a bioavailability in data set [4] of 7.5%. Moreover, the Vd in data set [2] came out at 13 L/kg. Further, in data set [3], the Papp A→B at 10 µM amounted to 3.7 ×10⁻⁶ cm/s.

Consider `CCNc1nc(N)nc2nc(-n3cccn3)ccc12`, for which, in data set [1], the logD worked out at 2.

Broadly, the AUC(0-t) is exposure summed from dosing to a finite time, without extrapolation to infinity. Regarding `CC1(Nc2nc(N)nc3nc(-c4cc[nH]n4)ccc23)CC1`, the figures for the bioavailability in data set [6] and in data set [4] were 70% and 56%, respectively. In data set [5], this compound came in with a solubility at 24 h of 910 µM (≈ 256 µg/mL). Also, the AUC(0-t) in data set [7] is 7.5 µM·h; in data set [8], 0.2 µM·h. Moreover, the Vd in data set [2] was 7.8 L/kg. Besides, in data set [3], the Papp A→B at 10 µM stood at 4.2 ×10⁻⁶ cm/s.

In data set [1], `CCNc1nc(N)nc2nc(-c3ccc[nH]c3=O)ccc12` registered a logD of 0.8.

In turn, `CC1(Nc2nc(N)nc3cc(-c4cc[nH]n4)ccc23)CC1` came in with a solubility at 24 h in data set [5] above 1000 µM. The bioavailability in data set [4] was 25%. Further, the Vd in data set [2] is 4.7 L/kg. For the same compound, the Papp A→B at 10 µM in data set [3] was 9 ×10⁻⁶ cm/s.

In turn, `Nc1nc(NCCn2cccn2)c2ccc(-c3cc[nH]n3)nc2n1` yielded a logD in data set [1] of 1.4.

`c1cnn(CCNc2ccnc3cc(-n4cccn4)ccc23)c1` displayed a logD in data set [1] of 1.8.

Regarding `CCNc1nc(N)nc2cc(-n3cccn3)cnc12`, the logD in data set [1] came to 2.1.

`CCNc1nc(N)nc2cc(-n3cccn3)ccc12` returned a logD in data set [1] of 1.8.

In turn, `CCNc1cc(N)nc2cc(-n3cccn3)ccc12` had a logD in data set [1] of 1.5.

Compound `Nc1cc(NCCn2cccn2)c2ccccc2n1` yielded a logD in data set [1] of 0.5.

(Values after ChEMBL document CHEMBL5390234 (Bioorg Med Chem Lett, 2023).)
